CC(C)(C#N)N=NC(C)(C)C#N
Conditions	solubility (mole fraction)
in acetone, 278.15 K	0.0518
in acetone, 283.45 K	0.062
in acetone, 288.75 K	0.0741
in acetone, 293.05 K	0.0881
in acetone, 297.85 K	0.106
in acetone, 302.95 K	0.127
in acetone, 307.95 K	0.145
in acetone, 312.75 K	0.176
in acetone, 318.05 K	0.209
in acetone, 322.75 K	0.236
in benzene, 279.25 K	0.0254
in benzene, 283.75 K	0.0311
in benzene, 290.05 K	0.0411
in benzene, 293.65 K	0.049
in benzene, 298.05 K	0.0603
in benzene, 303.25 K	0.077
in benzene, 307.95 K	0.0938
in benzene, 312.65 K	0.119
in benzene, 317.65 K	0.151
in benzene, 322.25 K	0.181
in ethanol, 278.55 K	0.00263
in ethanol, 284.35 K	0.00408
in ethanol, 288.95 K	0.00511
in ethanol, 293.15 K	0.00667
in ethanol, 297.85 K	0.00938
in ethanol, 302.95 K	0.0128
in ethanol, 307.65 K	0.0165
in ethanol, 312.55 K	0.0221
in ethanol, 317.65 K	0.0314
in ethanol, 322.55 K	0.0427
in ethyl acetate, 278.15 K	0.0349
in ethyl acetate, 282.85 K	0.0424
in ethyl acetate, 287.75 K	0.053
in ethyl acetate, 293.65 K	0.0669
in ethyl acetate, 298.35 K	0.0821
in ethyl acetate, 303.15 K	0.0959
in ethyl acetate, 307.85 K	0.119
in ethyl acetate, 312.95 K	0.144
in ethyl acetate, 317.95 K	0.175
in ethyl acetate, 322.95 K	0.206
in methanol, 268.15 K	0.0034
in methanol, 273.15 K	0.00441
in methanol, 278.15 K	0.00567
in methanol, 283.15 K	0.00738
in methanol, 288.15 K	0.00942
in methanol, 293.15 K	0.0124
in methanol, 298.15 K	0.0162
in methanol, 303.15 K	0.0212
in methanol, 308.15 K	0.0277
in methanol, 313.15 K	0.0364
in methanol, 318.15 K	0.0479
in methanol, 323.15 K	0.0637
